Experimental data taken from patent US12195437B2, “Lipophenolic flavonoid derivatives useful to reduce carbonyl and oxidative stresses (COS)” (Centre National de la Recherche Scientifique (CNRS), priority 2018, dated 2025).

Key:
Type in all cases: cell-based
ARPE-19 cells [1] = assay: Protection of lipophenols against all-trans-retinal toxicity (anti-carbonyl stress activity, MTT); conditions: trans-retinal 15 μM; for cell survival gain (anti-carbonyl stress activity): compared to stressed untreated cells; for anti-carbonyl stress activity (in words): up to 80 μM lipophenol
Description: (§1) ARPE-19 cells (cells from the retinal pigment epithelium) were obtained from ATCC, and were grown following the instructions in Dulbecco's Modified Eagle's Medium (DMEM)/Ham F12 (GIBCO) containing 10% v/v fetal bovine serum (FBS) and 1% v/v penicillin/streptomycin under a humidified air (95%)/CO2 (5%) atmosphere at 37° C. For experimental cell seeding and sub-culturing, cells were dissociated with 0.25% trypsin-EDTA, re-suspended in the culture medium and then plated at 1-3×10^5 cells/mL.
(§2) Cell viability was determined by MTT colorimetric assay. Cells were incubated for 2 h with MTT reagent (0.5 mg/mL). During this incubation time, dehydrogenases of living cells reduced MTT to insoluble purple formazan, which was then dissolved in DMSO. The absorbance at 570 nm and 655 nm of individual wells was measured using a microplate reader (BioRad 550). The percentage of viable cells was calculated as [(OD570 sample−OD655 sample)/(OD570 control−OD655 control)]×100%.
ARPE-19 cells were plated into 96-well plates (4×10^4 cells/well) and cultured for 24 h to reach confluence before lipophenol treatment. The cell cultures were treated with serum free medium containing lipophenols at different concentrations (0-80 μM) for 1 h. Then all-trans-retinal was added to a final concentration of 15 μM for 4 h, before rinsing with medium. Control cells were incubated with DMSO (0.2%)±all-trans-retinal. The cell viability was determined 16-20 h later using a MTT colorimetric assay. All samples are expressed as percentage of viability compared to non-treated and exposed to all-trans-retinal control cells. Non-treated and non-exposed to all-trans-retinal control cells are normalized at 100% survival.
The results on the measurement of anti-carbonyl stress activity will be discussed in % cell survival gain compared to cells stressed by trans-retinal (at 15 μM) and not treated with lipophenols. Any survival gain greater than +5% will be considered as a proven anti-carbonyl stress activity.

ARPE-19 cells [2] = assay: Protection of lipophenols against ROS production (DCFDA probe, H2O2); conditions: H2O2 600 μM; for increase in ROS compared to non-stressed cells: from 20 μM lipophenol
Description: as §1
Reactive oxygen species (ROS) were measured in ARPE-19 cells with the probe DCFDA. The cell permeant reagent DCFDA is deacetylated by cellular esterases to […], which can be oxidized by ROS into the fluorophore 2′,7′-dichlorofluorescein (DCF). ARPE-19 cells were plated into black, opaque bottom 96-well plates (4×10^4 cells/well) and cultured for 24 h to reach confluence before drug treatment. The cell cultures were incubated with 2 μM of DCFDA for 45 min in DMEM/F12 medium without phenol red+1% FBS. The cells were rinsed and incubated with medium containing lipophenols at different concentrations (0-80 μM) for 1 h. Then H2O2 was added to a final concentration of 600 μM for 4 h, followed by the measurement of DCF production by fluorescence spectroscopy with excitation wavelength at 485 nm and emission wavelength at 535 nm. Control cells were incubated with DMSO (0.2%)±DCFDA±H2O2. All samples are expressed as percentage of ROS production compared to non-oxidized control cells (normalized at 100% of ROS production).
The lowest percentages of increase will therefore be representative of the most protective derivatives.

ARPE-19 cells [3] = assay: Protection of lipophenols against photoactivated A2E toxicity (MTT); conditions: A2E 20 μM, blue light
Description: as §1, §2
ARPE-19 cells were plated into 96-well plates (4×10^4 cells/well) and cultured for 24 h to reach confluence before lipophenol treatment. The cell cultures were treated with serum free DMEM/F12 medium without phenol red containing lipophenols at different concentrations (0-80 μM) for 1 h. Then A2E was added to a final concentration of 20 μM for 6 h, before rinsing with medium. Control cells were incubated with DMSO (0.2%)+A2E. Cells were exposed to intense blue light (4600 LUX) for 30 min to induce phototoxicity of A2E and incubated at 37° C. The cell viability was determined 16-20 h later using a MTT colorimetric assay. All samples are expressed as percentage of viability compared to non-treated and exposed to A2E control cells. Non-treated and non-exposed to A2E control cells are normalized at 100% survival.
Photoactivation of A2E leads to its oxidation and can generate cytotoxic derivatives, in particular carbonyl derivatives responsible for carbonyl stress. Results on lipophenol protection against photoactivated A2E toxicity will be discussed in % cell survival gain compared to cells stressed by A2E and not treated by lipophenols. This additional evaluation was not performed for all synthesized lipophenolic derivatives but only a selection of them to discuss the results obtained.

ARPE-19 cells [4] = assay: Cytotoxicity of lipophenols on ARPE-19 cells (MTT); conditions: 24 h; for toxicity (in words): concentrations up to 160 μM; for cell survival: compared to untreated cells (100%)
Description: as §2
(§3) ARPE-19 cells were plated into 96-well plates (4×10^4 cells/well) and cultured for 24 h to reach confluence before lipophenol treatment. […] Control cells were incubated with DMSO (0.2%). The viability of the cells was determined using a MTT colorimetric assay. All samples are expressed as percentage of viability compared to non-treated control cells (normalized at 100% survival).
(§4) Results on the measurement of lipophenol toxicity will be discussed in % cell survival at a given lipophenol concentration compared to untreated cells. […] Any concentration of lipophenol resulting in cell survival of less than 5% (zero survival) will be considered a highly toxic concentration.

[5] = Cytotoxicity of lipophenols on ARPE-19 cells (MTT); conditions: human, ARPE-19 cells (retinal pigment epithelium), tested 0-160 μM, read-out: CC50 (cytotoxic concentration 50)
Description: as §2, §3, §4

## CCCCC/C=C\C/C=C\CCCCCCCC(=O)O[C@H]1Cc2c(OC(C)C)cc(O)cc2O[C@@H]1c1ccc(O)c(O)c1 [C-3LA-5OiP, (9Z,12Z)-(2R,3S)-2-(3,4-dihydroxyphenyl)-7-hydroxy-5-isopropoxy-chroman-3-yl octadeca-9,12-dienoate]
ARPE-19 cells [1]; 80 μM lipophenol
  cell survival gain (anti-carbonyl stress activity): +9%
ARPE-19 cells [2]; 80 μM lipophenol
  gain of % of ROS production compared to non-stressed cells: +67%
ARPE-19 cells [3]; concentration not given
  cell survival gain against photoactivated A2E: +30%

## CCCCC/C=C\C/C=C\CCCCCCCC(=O)O[C@H]1Cc2c(O)cc(OC(C)C)cc2O[C@@H]1c1ccc(O)c(O)c1 [C-3LA-7OiP, (9Z,12Z)-(2R,3S)-2-(3,4-dihydroxyphenyl)-5-hydroxy-7-isopropoxy-chroman-3-yl octadeca-9,12-dienoate]
ARPE-19 cells [4]
  concentration from which cell survival is zero (highly toxic concentration): 80 µM
ARPE-19 cells [1]; 40 μM lipophenol
  cell survival gain (anti-carbonyl stress activity): +27%
ARPE-19 cells [2]; 80 μM lipophenol
  gain of % of ROS production compared to non-stressed cells: +37%

## CC(C)Oc1cc(O)cc2c1C[C@H](O)[C@@H](c1ccc(O)c(O)c1)O2 [C-50iP, reference compound]
ARPE-19 cells [4]
  toxicity (in words): no toxicity
ARPE-19 cells [1]
  anti-carbonyl stress activity (in words): no anti-carbonyl stress activity
ARPE-19 cells [2]
  increase in ROS compared to non-stressed cells: 0%

## CC(C)Oc1cc(O)c2c(c1)O[C@H](c1ccc(O)c(O)c1)[C@@H](O)C2 [C-70iP, reference compound]
ARPE-19 cells [4]
  toxicity (in words): no toxicity
ARPE-19 cells [1]
  anti-carbonyl stress activity (in words): no anti-carbonyl stress activity
ARPE-19 cells [2]
  increase in ROS compared to non-stressed cells: 0%

## CC/C=C\C/C=C\C/C=C\CCCCCCCC(=O)Oc1c(-c2ccc(O)c(O)c2)oc2cc(O)cc(OC(C)C)c2c1=O [Q-3ALA-5OiP, (9Z,12Z,15Z)-7-hydroxy-2-(3,4-dihydroxyphenyl)-5-isopropoxy-4-oxo-4H-chromen-3-yl octadeca-9,12,15-trienoate]
ARPE-19 cells [4]
  concentration from which cytotoxicity is induced: 60 µM
ARPE-19 cells [1]; 40 μM lipophenol
  cell survival gain (anti-carbonyl stress activity): +24%

## CC/C=C\C/C=C\C/C=C\CCCCCCCC(=O)Oc1c(-c2ccc(O)c(O)c2)oc2cc(OC(C)C)cc(O)c2c1=O [Q-3ALA-7OiP, (9Z,12Z,15Z)-5-hydroxy-2-(3,4-dihydroxyphenyl)-7-isopropoxy-4-oxo-4H-chromen-3-yl octadeca-9,12,15-trienoate]
ARPE-19 cells [4]
  toxicity (in words): no toxicity
ARPE-19 cells [1]; 80 μM lipophenol
  cell survival gain (anti-carbonyl stress activity): +29%
ARPE-19 cells [3]; 80 μM lipophenol, compared to stressed untreated cells
  cell survival gain against photoactivated A2E: +77%

## CC/C=C\C/C=C\C/C=C\C/C=C\C/C=C\C/C=C\CCC(=O)Oc1c(-c2ccc(O)c(O)c2)oc2cc(O)cc(O)c2c1=O [Q-3DHA, (4Z,7Z,10Z,13Z,16Z,19Z)-2-(3,4-dihydroxyphenyl)-5,7-dihydroxy-4-oxo-4H-chromen-3-yl docosa-4,7,10,13,16,19-hexaenoate]
[5]
  CC50 at 24 h: < 160 µM
ARPE-19 cells [1]; 60 μM lipophenol
  cell survival gain, maximum protection: +21%

## CC/C=C\C/C=C\C/C=C\C/C=C\C/C=C\C/C=C\CCC(=O)Oc1c(-c2ccc(O)c(O)c2)oc2cc(OC(C)C)cc(O)c2c1=O [Q-3DHA-7OiP, (4Z,7Z,10Z,13Z,16Z,19Z)-5-hydroxy-2-(3,4-dihydroxyphenyl)-7-isopropoxy-4-oxo-4H-chromen-3-yl docosa-4,7,10,13,16,19-hexaenoate]
ARPE-19 cells [4]
  toxicity (in words): no toxicity
ARPE-19 cells [1]; 80 μM lipophenol
  cell survival gain (anti-carbonyl stress activity): +29%
ARPE-19 cells [3]; as early as 20 μM lipophenol (plateau)
  cell survival gain against photoactivated A2E: +62%

## CCCCC/C=C\C/C=C\CCCCCCCC(=O)Oc1c(-c2ccc(O)c(O)c2)oc2cc(O)cc(O)c2c1=O [Q-3LA, (9Z,12Z)-2-(3,4-dihydroxyphenyl)-5,7-dihydroxy-4-oxo-4H-chromen-3-yl octadeca-9,12-dienoate]
ARPE-19 cells [4]; 80 μM lipophenol
  cell survival: 156%
ARPE-19 cells [4]; 160 μM lipophenol
  cell survival: 124%
ARPE-19 cells [1]; 20 μM lipophenol
  cell survival gain, maximum protection: +9%
ARPE-19 cells [3]; from 60 μM lipophenol
  cell survival gain against photoactivated A2E: +48%

## CCCCC/C=C\C/C=C\CCCCCCCC(=O)Oc1c(-c2ccc(O)c(O)c2)oc2cc(O)cc(OC(C)C)c2c1=O [Q-3LA-5OiP, (9Z,12Z)-7-hydroxy-2-(3,4-dihydroxyphenyl)-5-isopropoxy-4-oxo-4H-chromen-3-yl octadeca-9,12-dienoate]
[5]
  CC50 at 24 h: < 80 µM
ARPE-19 cells [1]; 40 μM lipophenol
  cell survival gain (anti-carbonyl stress activity): +34%
ARPE-19 cells [1]; 80 μM lipophenol
  cell survival gain (anti-carbonyl stress activity): +49%

## CCCCC/C=C\C/C=C\CCCCCCCC(=O)Oc1c(-c2ccc(O)c(O)c2)oc2cc(OC(C)C)cc(O)c2c1=O [Q-3LA-7OiP, (9Z,12Z)-5-hydroxy-2-(3,4-dihydroxyphenyl)-7-isopropoxy-4-oxo-4H-chromen-3-yl octadeca-9,12-dienoate]
ARPE-19 cells [4]; 160 μM lipophenol
  cell survival: 153%
ARPE-19 cells [1]; 80 μM lipophenol
  cell survival gain (anti-carbonyl stress activity): +38%
ARPE-19 cells [3]; from 40 μM lipophenol (plateau)
  cell survival gain against photoactivated A2E: +86%

## CC(C)Oc1cc(O)cc2oc(-c3ccc(O)c(O)c3)c(O)c(=O)c12 [Q-50iP, reference compound]
ARPE-19 cells [4]; 160 μM lipophenol
  cell survival: 72%
ARPE-19 cells [4]
  toxicity (in words): almost no toxicity
ARPE-19 cells [1]
  anti-carbonyl stress activity (in words): did not show anti-carbonyl stress potency
ARPE-19 cells [2]; 80 μM lipophenol
  gain of % of ROS production compared to non-stressed cells: +46%

## CC(C)Oc1cc(O)c2c(=O)c(O)c(-c3ccc(O)c(O)c3)oc2c1 [Q-70iP, reference compound]
ARPE-19 cells [4]
  concentration from which cell survival is zero (highly toxic concentration): 40 µM
  toxicity (in words): very important cytotoxicity even at low concentration
ARPE-19 cells [1]
  anti-carbonyl stress activity (in words): did not show anti-carbonyl stress potency
ARPE-19 cells [2]; 20 μM lipophenol
  gain of % of ROS production compared to non-stressed cells: +31%

## Oc1cc(O)cc(O)c1 [phloroglucinol, reference compound]
ARPE-19 cells [4]; 160 μM lipophenol
  cell survival: 61%
ARPE-19 cells [1]
  anti-carbonyl stress activity (in words): no survival gain
ARPE-19 cells [2]; 80 μM lipophenol
  gain of % of ROS production compared to non-stressed cells: +50%
ARPE-19 cells [3]; up to 80 μM lipophenol
  protection against photoactivated A2E (in words): no cell protection

## (+)-catechin [reference compound]
ARPE-19 cells [1]
  anti-carbonyl stress activity (in words): no anti-carbonyl stress activity
ARPE-19 cells [2]
  increase in ROS compared to non-stressed cells: 0%
